Experiments:
[1] = test system: Ba/F3 (L858R + T790M); test: Cellular growth inhibition assay (CellTiter-Glo), Ba/F3 (L858R+T790M); assay type: cell-based; details: Mus musculus, BaF3, 72 h; 3 days of incubation
Description: (§1) Example E. Cellular Growth Inhibition Assay
(§2) Ba/F3(Empty vector) (Signosis), Ba/F3(Wild type) (Signosis), Ba/F3(L^858R+T790M) (Signosis), Ba/F3(A767_dupASV) (Signosis), Ba/F3(D770_N771insSVD) (Signosis), Ba/F3(H773_V774insNPH) (Signosis) were seeded at a density of 4000 cells per well in a CellBIND® 384-well Flat Clear Bottom Black Polystyrene Microplates (Coming, USA, Cat #3770) in 45 μl total volume of RPMI (PanEco, Cat #C330, Russia) with […] (HyClone, Cat #SV30160.03) and with 10 ng/ml rmIL-3 (RD systems, USA, Cat #403-ML-025) (for BaBF3(Empty vector)) and with 10 ng/ml rhEGF (ThermoFisher, USA, Cat #PHG0311L) (for BaCF3(Wild type)). 500× compounds solutions in DMSO (Sigma Cat #D2650) were prepared into Cmpnds plate (DiamondWell Plate, Axigen, Cat #P-384-120SQ-C—S) and DMSO only control was included. 1.l of 500× compounds (Cmpnds plate) was added to 49 µl of culture medium into Dilution plate (Diamond Well Plate, Axigen, Cat #P-384-120SQ-C—S), mixed and then 5 μl of 10× compounds solutions were transferred to cells followed by centrifugation at 100 g for 1 min. Final DMSO concentration was 0.2% o. After 3 days of incubation 10.l of CellTiter-Glo (Promega, CAT #G7572) were added to the cells, plate was centrifuged at 100 g for 1 min and luminescence signal was measured using Microplate Reader (CLARIOStar).

[2] = test system: Ba/F3 (EGFRwt); test: Cellular growth inhibition assay (CellTiter-Glo), Ba/F3 (EGFRwt); assay type: cell-based; details: Mus musculus, BaF3, 72 h; Ba/F3 (Wild type) with 10 ng/ml rhEGF, 3 days of incubation
Description: as §1, §2

[3] = test system: Ba/F3 (A767_dupASV); test: Cellular growth inhibition assay (CellTiter-Glo), Ba/F3 (A767_dupASV); assay type: cell-based; details: Mus musculus, BaF3, 72 h; 3 days of incubation; read-out: Ba/F3 (A767_dup ASV) CC50
Description: as §1, §2

[4] = Cellular growth inhibition assay (CellTiter-Glo), Ba/F3 (Empty vector); assay type: cell-based; details: mouse, Ba/F3 cells with empty vector; Ba/F3 (Empty vector) with 10 ng/ml rmIL-3, 3 days of incubation
Description: as §1, §2

[5] = test system: Ba/F3 (H773_V774insSVD); test: Cellular growth inhibition assay (CellTiter-Glo), Ba/F3 (H773_V774insSVD); assay type: cell-based; details: Mus musculus, BaF3, 72 h; 3 days of incubation; read-out: Ba/F3 (H773_V774 insSVD) CC50
[6] = test system: Ba/F3 (D770_N771insSVD); test: Cellular growth inhibition assay (CellTiter-Glo), Ba/F3 (D770_N771insSVD); assay type: cell-based; details: Mus musculus, BaF3, 72 h; 3 days of incubation; read-out: Ba/F3 (D770_N771 insSVD) CC50
Description: as §1, §2

[7] = target: EGFR (WT) (Homo sapiens (Human), UniProt P00533); test: Potency of EGFR enzymatic activity inhibition (WT) (ADP-Glo luminescence); assay type: biochemical; details: recombinant EGFR (WT) 4 nM, Poly(Glu, Tyr) substrate, ATP, 1 h at rt
Sequence of EGFR (WT) (P00533 25-1210): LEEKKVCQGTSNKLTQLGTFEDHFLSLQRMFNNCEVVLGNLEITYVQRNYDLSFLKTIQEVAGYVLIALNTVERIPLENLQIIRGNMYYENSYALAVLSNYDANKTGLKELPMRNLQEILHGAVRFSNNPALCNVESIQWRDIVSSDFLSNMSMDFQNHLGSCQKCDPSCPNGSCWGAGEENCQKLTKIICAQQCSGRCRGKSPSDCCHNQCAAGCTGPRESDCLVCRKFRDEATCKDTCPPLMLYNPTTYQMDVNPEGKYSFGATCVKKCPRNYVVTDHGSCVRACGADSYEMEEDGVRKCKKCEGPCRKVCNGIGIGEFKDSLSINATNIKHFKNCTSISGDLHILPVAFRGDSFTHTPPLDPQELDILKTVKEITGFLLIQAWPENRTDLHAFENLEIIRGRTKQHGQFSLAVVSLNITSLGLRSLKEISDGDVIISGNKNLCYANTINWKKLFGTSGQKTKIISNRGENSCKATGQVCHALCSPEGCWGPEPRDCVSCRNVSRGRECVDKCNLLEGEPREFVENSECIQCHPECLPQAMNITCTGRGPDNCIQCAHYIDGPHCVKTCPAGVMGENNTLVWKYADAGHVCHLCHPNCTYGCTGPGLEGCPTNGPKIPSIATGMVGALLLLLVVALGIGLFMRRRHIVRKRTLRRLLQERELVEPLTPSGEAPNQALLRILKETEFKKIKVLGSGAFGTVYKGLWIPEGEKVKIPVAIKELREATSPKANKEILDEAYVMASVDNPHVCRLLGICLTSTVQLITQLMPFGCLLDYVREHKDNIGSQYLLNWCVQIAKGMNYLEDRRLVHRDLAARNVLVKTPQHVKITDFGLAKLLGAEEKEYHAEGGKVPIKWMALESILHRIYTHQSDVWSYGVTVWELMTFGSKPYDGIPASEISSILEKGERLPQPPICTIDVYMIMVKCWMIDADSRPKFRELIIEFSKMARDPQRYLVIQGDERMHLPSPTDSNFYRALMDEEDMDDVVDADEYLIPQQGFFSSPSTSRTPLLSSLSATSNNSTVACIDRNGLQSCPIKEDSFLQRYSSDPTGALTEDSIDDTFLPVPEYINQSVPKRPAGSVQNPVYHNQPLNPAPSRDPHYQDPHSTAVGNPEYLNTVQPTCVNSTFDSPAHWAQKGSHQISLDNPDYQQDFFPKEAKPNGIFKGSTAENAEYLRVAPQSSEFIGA
Description: Example D. Primary Assay Used to Determine Potency of EGFR enzymatic activity Inhibition (WT)
Compound activity was determined using recombinant EGFR protein (SignalChem, #E10-112G-10) and Poly(Glu, Tyr) substrate (Sigma-Aldrich, #P0275) in an in vitro enzymatic reaction. The enzymatic assay used to determine activity was a Luminescence assay using a Microplate Reader ClarioStar Plus. The enzymatic reaction was carried out in assay buffer (40 mM TRIS-HCl pH 7.4-7.6, 20 mM MgCl2, 2.5 mM MnCl2, 0.05 mM DTT, 0.1 mg/ml BSA). The compounds were dispensed on a 384 well Diamond Well Plate (Axigen, Cat #P-384-120SQ-C—S) using the Biomek FX liquid handling system at 80× solutions of compounds in DMSO. 2× Protein-Substrate mix (final concentration 4 nM of EGFR and 50 ng/μl of Poly(Glu, Tyr)) was prepared in 1× Assay buffer and 4 μl of mixture per well was added into 384w white Reaction plate with NBS (Coming, Cat #4513). 4 μl of Poly(Glu, Tyr) substrate w/o EGFR in 1× buffer was used for negative control. Plates were centrifuged for 1 min at 200 g. Next step the Compounds were added to Reaction plate using Biomek station via following steps: 1 μl of 80× compounds (in DMSO) were mixed thoroughly with 39 μl of 2× 10 μM ATP in Assay Buffer, then 4 μl of this mixture was added to Reaction plate with 4 μl of Protein-Substrate mix. Plates were centrifuged for 1 min at 200 g and incubated for 1 h at rt. Next 4 μL of ADP-Glo reagent (Promega, ADP-Glo™ Kinase Assay, Cat #V9102) per well was added. Plates were incubated for 30 min at rt. Then 8 μL of Kinase detection reagent (Promega, ADP-Glo™ Kinase Assay, Cat #V9102) per well was added and the Luminescence was measured using Microplate Reader. The % inhibition was then used to calculate the EC50 values. The results for certain compounds are presented in the Table D. The values of EC50 shown as a letters A-E, where: A<0.001 μM; 0.001 μM<B<0.005 μM; 0.005 μM<C<

[8] = target: EGFR (D770_N771insNPG) (Homo sapiens (Human), UniProt P00533, INS770NPG); test: Potency of EGFR (D770_N771insNPG) enzymatic activity inhibition (ADP-Glo luminescence); assay type: biochemical; details: recombinant EGFR (D770_N771insNPG) 1.5 nM, Poly(Glu, Tyr) substrate, ATP, 1 h at rt
Sequence of EGFR (D770_N771insNPG) (P00533 other isoform, or with tags, fused parts or gaps del 1-694/ins NPG behind 770 limits assumed): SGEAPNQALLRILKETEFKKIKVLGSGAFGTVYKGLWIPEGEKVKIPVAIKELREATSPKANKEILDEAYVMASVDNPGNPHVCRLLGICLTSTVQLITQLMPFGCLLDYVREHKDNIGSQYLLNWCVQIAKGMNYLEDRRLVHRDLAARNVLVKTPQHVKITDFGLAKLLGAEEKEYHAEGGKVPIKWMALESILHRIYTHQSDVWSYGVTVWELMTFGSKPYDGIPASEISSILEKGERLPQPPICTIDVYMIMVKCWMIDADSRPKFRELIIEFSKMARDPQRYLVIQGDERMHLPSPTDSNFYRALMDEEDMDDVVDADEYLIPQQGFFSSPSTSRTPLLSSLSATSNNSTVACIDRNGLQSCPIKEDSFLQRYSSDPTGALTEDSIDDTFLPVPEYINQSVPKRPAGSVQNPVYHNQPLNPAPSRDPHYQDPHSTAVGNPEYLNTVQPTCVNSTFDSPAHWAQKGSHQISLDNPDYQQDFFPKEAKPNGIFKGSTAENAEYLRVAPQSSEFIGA
Description: Example B. Primary Assay Used to Determine Potency of EGFR (D770_N771insNPG) Enzymatic Activity Inhibition
Compounds activity was determined using recombinant EGFR (D770 N771insNPG) protein (SignalChem, #E10-132GG-10) and Poly(Glu, Tyr) substrate (Sigma-Aldrich, #P0275) in an in vitro enzymatic reaction. The enzymatic assay used to determine activity was a Luminescence assay using a Microplate Reader ClarioStar Plus. The enzymatic reaction was carried out in assay buffer (40 mM TRIS-HCl pH 7.4-7.6, 20 mM MgCl2, 2.5 mM MnCl2, 0.05 mM DTT, 0.1 mg/ml BSA). The compounds were dispensed on a 384 well Diamond Well Plate (Axigen, Cat #P-384-120SQ-C—S) using the Biomek FX liquid handling system at 80× solutions of compounds in DMSO. 2× Protein-Substrate mix (final concentration 1.5 nM of EGFR (D770_N771insNPG) and 50 ng/μl of Poly(Glu, Tyr)) was prepared in 1× Assay buffer and 4 µl of mixture per well was added into 384w white Reaction plate with NBS (Coming, Cat #4513). 4 μl of Poly(Glu, Tyr) substrate w/o EGFR in 1× buffer was used for negative control. Plates were centrifuged for 1 min at 200 g. Next step the Compounds were added to Reaction plate using Biomek station via following steps: 1 μl of 80× compounds (in DMSO) were mixed thoroughly with 39 μl of 2× 10 μM ATP in Assay Buffer, then 4 μl of this mixture was added to Reaction plate with 4 μl of Protein-Substrate mix. Plates were centrifuged for 1 min at 200 g and incubated for 1 h at rt. Next 4 μL of ADP-Glo reagent (Promega, ADP-Glo™ Kinase Assay, Cat #V9102) per well was added. Plates were incubated for 30 min at rt. Then 8 μL of Kinase detection reagent (Promega, ADP-Glo™ Kinase Assay, Cat #V9102) per well was added and the Luminescence was measured using Microplate Reader. The % inhibition was then used to calculate the EC50 values. The values of EC50 shown as a letters A-E, where: A<0.001 μM; 0.001 μM<B<0.005 μM; 0.005 μM<C<0.01 μM; 0.01<D<0.05 μM; E>0.05.

SMILES | CC50 [1] [µM] | CC50 [2] [µM] | CC50 [3] [µM] | CC50 at 3 days [4] [µM] | CC50 [5] [µM] | CC50 [6] [µM] | EC50 [7] [µM] | EC50 [8] [µM]
COc1c(F)cccc1Nc1c2[nH]c3c1C(=O)NCC3C/C=C/COCCOc1cnccc1-2 (stereo not shown) [Compound 99, (13E)-23-[(3-Fluoro-2-methoxyphenyl)amino]-8,11-dioxa-5,18,22-tniazatetracyclo[18.2.1.0^2,7.0^16′2]tricosa-1(23),2,4,6,13,20-hexaen-19-one] | 0.1 to 1 | 0.01 to 0.1 | 0.001 to 0.01 | > 10 | 0.1 to 1 | 0.01 to 0.1 | 0.001 to 0.005 | 0.001 to 0.005
COc1c(F)cccc1Nc1c2[nH]c3c1C(=O)NCC3CCCCOCCOc1cnccc1-2 (stereo not shown) [Compound 100, 23-[(3-Fluoro-2-methoxyphenyl)amino]-8,11-dioxa-5,18,22-triazatetracyclo[18.2.1.0^2,7.0^16,21]tricosa-1(23),2,4,6,20-pentaen-19-one] | 0.1 to 1 | 0.01 to 0.1 | 0.001 to 0.01 | > 10 | 0.01 to 0.1 | 0.01 to 0.1 | ≤ 0.001 | 0.001 to 0.005
COc1c(F)cccc1Nc1c2[nH]c3c1C(=O)NC[C@@H]3CC(=O)N1CCC[C@H]1C(=O)NCCCOc1cnccc1-2 [Compound 147, (16aS,22aS)-23-(3-fluoro-2-methoxyanilino)-14,15,16a,17,18,19,22,22a-octahydro-2H,12H-4,6-(metheno)dipyrido[3,4-k: 4′,3′-o]pyrrolo[2,1-g][1,5,8,13]oxatriazacyclohexadecine-3,16,21(1H,5H,13H)-trione] | > 10 | > 10 | > 10 | > 10 | > 10 | > 10 |  | 
COc1c(F)cccc1Nc1c2[nH]c3c1C(=O)NC[C@H]3CC(=O)N1CCC[C@H]1C(=O)NCCCOc1cnccc1-2 [Compound 148, (16aS,22aR)-23-(3-fluoro-2-methoxyanilino)-14,15,16a,17,18,19,22,22a-octahydro-2H,12H-4,6-(metheno)dipyrido[3,4-k: 4′,3′-o]pyrrolo[2,1-g][1,5,8,13]oxatriazacyclohexadecine-3,16,21(1H,5H,13H)-trione] | > 10 | > 10 | > 10 | > 10 | > 10 | > 10 |  | 
COc1c(F)cccc1Nc1c2[nH]c3c1C(=O)NCC3CC(=O)N(C)CC(=O)NCCCOc1cnccc1-2 (stereo not shown) [Compound 149, 21-(3-fluoro-2-methoxyanilino)-12-methyl-6,7,8,9,11,12,14,14a,15,16-decahydro-18,20-(metheno)dipyrido[3,4-k: 4′,3′-o][1,5,8,13]oxatriazacyclohexadecine-10,13,17(19H)-trione] | > 10 | > 10 | 1 to 10 | > 10 | > 10 | 1 to 10 |  | 
COc1c(F)cccc1Nc1c2[nH]c3c1C(=O)NCC3CC(=O)NCCOCCOCCOc1cnccc1-2 (stereo not shown) [Compound 150, 23-(3-fluoro-2-methoxyanilino)-6,7,9,10,13,14,16,16a,17,18-decahydro-20,22-(metheno)dipyrido[3,4-m: 4′,3′-q][1,4,7,10,15]trioxadiazacyclooctadecine-15,19(12H,21H)-dione] | > 10 | > 10 | > 10 | > 10 | > 10 | > 10 |  | 
COc1c(F)cccc1Nc1c2[nH]c3c1C(=O)NCC3CC(=O)N1CCN(CCOCCOc3cnccc3-2)CC1 (stereo not shown) [Compound 153, 29-(3-Fluoro-2-methoxyanilino)-18,21-dioxa-1,6,10,15,24-pentaazapentacyclo[22.2.2.1^8,110^4,9.0^12,17]nonacosa-8,11(29),12(17),13,15-pentaene-2,7-dione] | > 10 | > 10 | > 10 | > 10 | > 10 | > 10 |  | 
COc1c(F)cccc1Nc1c2[nH]c3c1C(=O)NC[C@@H]3CCCN1CCO[C@H](COc3cnccc3-2)C1 [Compound 157, (7S)-21-[(3-Fluoro-2-methoxyphenyl)amino]-6,7,9,10,12,13,14,14a,15,16-decahydro-7,11-methano-18,20-methenodipyrido[3,4-k:4′,3′-o][1,4,7,13]dioxadiazacyclohexadecin-17(19H)-one] | > 10 | > 10 | > 10 | > 10 | > 10 | > 10 |  | 
